From paper PMC11374718, “Unlocking opioid neuropeptide dynamics with genetically encoded biosensors” (Nature Neuroscience, 2024)
Read-outs that look alike come from different tables or passages of the source.

Key:
κLight1.3a [1] = assay: two-photon imaging of κLight1.3a response to electrical stimulation in hippocampal CA3 slices; set-up: species or system mouse; conditions: antagonist 100 µM, n = 3 slices
κLight1.3 [2] = target: T1, κLight1.3 (Homo sapiens, UniProt P41145, INS261[…]/L259S/S262L/V164K); format: cell-based
T1 construct: TlcnC (telencephalin) tag (C); PRC tag (C); ER2 (ER export motif FCYENEV) tag (C); expressed in transfected cells; dissociated hippocampal neurons (AAV9-hSyn); mouse brain (AAV9-hSyn)
Target sequence in this assay (P41145 with tags, fused parts or gaps V164K/L259S/INS261[withheld]/S262L): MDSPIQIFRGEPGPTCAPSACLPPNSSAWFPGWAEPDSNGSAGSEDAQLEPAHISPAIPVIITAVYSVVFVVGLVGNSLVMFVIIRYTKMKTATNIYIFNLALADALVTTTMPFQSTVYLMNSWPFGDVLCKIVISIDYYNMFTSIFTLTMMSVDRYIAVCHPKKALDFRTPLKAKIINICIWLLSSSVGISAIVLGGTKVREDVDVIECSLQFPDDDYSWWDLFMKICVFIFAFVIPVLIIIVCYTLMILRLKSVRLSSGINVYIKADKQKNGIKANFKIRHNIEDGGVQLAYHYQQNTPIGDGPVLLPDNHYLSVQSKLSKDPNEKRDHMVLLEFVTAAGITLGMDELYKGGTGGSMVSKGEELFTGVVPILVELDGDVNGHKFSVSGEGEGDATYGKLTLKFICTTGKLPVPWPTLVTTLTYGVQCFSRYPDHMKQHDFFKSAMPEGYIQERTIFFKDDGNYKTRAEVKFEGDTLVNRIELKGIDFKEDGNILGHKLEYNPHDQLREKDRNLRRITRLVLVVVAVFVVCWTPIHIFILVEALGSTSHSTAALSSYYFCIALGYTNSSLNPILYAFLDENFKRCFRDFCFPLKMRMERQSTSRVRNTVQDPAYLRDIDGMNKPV

δLight0 = target: T2, δLight0 (Homo sapiens, UniProt P41143, D128N/G248L/INS249[…]/V154K); assay: in vivo fiber photometry of control sensor δLight0 upon i.p. drug injection; set-up: species or system mouse; conditions: 5 mg/kg SNC162, n = 4 animals
T2 construct: ER2 tag (ER export motif FCYENEV) (C); PRC (proximal restriction and clustering) tag, after a GS linker (C); expressed in transfected cells; host or cells: mouse brain neurons (ARC; NAc) transduced in vivo with AAV-hSyn-δLight0
Text: (§1) We next determined if κLight and δLight can be activated by systemic administration of exogenous small-molecule drugs in vivo. We injected AAV9-hSyn encoding κLight1.3 or δLight, and κLight0 or δLight0 in the arcuate nucleus (ARC) of the hypothalamus, hippocampal CA3 region[43] and NAc[30], areas abundant in κOR and δOR. We next implanted fiber-optic ferrules above each injection site and recorded the fluorescence of κLight and δLight upon intraperitoneal (i.p.) injection of opioid receptor-selective ligands using fiber photometry (Fig. 4a and Extended Data Fig. 4h–j).
(§2) For fiber photometry studies, recordings were obtained throughout the entirety of drug injection, Pavlovian conditioning and head-fixed sessions as previously described. […] Laser intensity for the 470-nm- and 405-nm-wavelength bands were measured at the tip of the optic fiber and adjusted to 50 μW before each day of recording. κLight1.3 fluorescence traveled through the same optic fiber before being bandpass filtered (525 ± 25 nm, Doric, FMC4), transduced by a femtowatt silicon photoreceiver (Newport, 2151) and recorded by a real-time processor (TDT, RZ5P). […]
Custom MATLAB scripts were developed for analyzing fiber photometry data in the context of mouse behavior. […] After baseline correction, the photometry trace was z-scored relative to the mean and standard deviation of the session. […]

κLight1.3 [3] = target: T1, κLight1.3; format: cell-based; remark: listed apart in the source
Target sequence in this assay (P41145 with tags, fused parts or gaps V164K/L259S/INS261[withheld]/S262L): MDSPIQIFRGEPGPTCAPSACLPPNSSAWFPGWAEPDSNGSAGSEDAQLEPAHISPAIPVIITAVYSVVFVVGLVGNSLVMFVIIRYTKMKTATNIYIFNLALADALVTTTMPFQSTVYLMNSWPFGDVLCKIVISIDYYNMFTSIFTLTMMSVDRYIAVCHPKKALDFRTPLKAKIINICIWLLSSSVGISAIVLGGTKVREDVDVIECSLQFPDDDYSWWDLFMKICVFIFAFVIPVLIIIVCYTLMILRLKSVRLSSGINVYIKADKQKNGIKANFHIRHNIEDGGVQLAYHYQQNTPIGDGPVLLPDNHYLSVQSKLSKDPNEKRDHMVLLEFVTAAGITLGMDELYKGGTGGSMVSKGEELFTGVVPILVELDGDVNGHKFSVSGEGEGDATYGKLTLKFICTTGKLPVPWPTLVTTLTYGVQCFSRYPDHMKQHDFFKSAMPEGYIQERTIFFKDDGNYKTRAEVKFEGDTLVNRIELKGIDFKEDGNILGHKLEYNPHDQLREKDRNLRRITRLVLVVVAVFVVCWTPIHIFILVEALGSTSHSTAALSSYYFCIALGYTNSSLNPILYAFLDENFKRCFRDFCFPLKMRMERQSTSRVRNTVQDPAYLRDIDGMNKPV

δLight [4] = target: T3, δLight (Homo sapiens, UniProt P41143, G248L/INS249[…]/V154K); format: in vivo, mouse
T3 construct: PRC tag (C); ER2 (ER export motif) tag (C); expressed in transfected cells; dissociated hippocampal neurons (AAV9-hSyn); mouse brain (AAV9-hSyn)
Text: as §1
as §2, with “described. Before recording, an optic fiber was attached to the implanted fiber using a ferrule sleeve (Doric, ZR_2.5). Two LEDs were used to excite κLight1.3.” for “described.”
(§3) Custom MATLAB scripts were developed for analyzing fiber photometry data in the context of mouse behavior. […] After baseline correction, the photometry trace was z-scored relative to the mean and standard deviation of the session. The post-processed fiber photometry signal was analyzed in the context of animal behavior during Pavlovian conditioning and operant task performance. […] Peak, mean and minimum fluorescence was determined during predetermined time windows for the injection period (0–5 min), reward period (5–20 s), release period (0–20 s) or artifact period (0–20 s) subtracted from peak, mean or minimum fluorescence values in a baseline window (−5 to 0 s). […]

µLight = µLight (Homo sapiens, UniProt P35372, INS270[…]/V175Q); format: cell-based
κLight1.3a [5] = assay: in vivo BLA terminal ChRimson stimulation-evoked κLight1.3a activity in NAcSh after drug pretreatment; set-up: species or system mouse; conditions: aticaprant 3 mg per kg i.p. pretreatment; normalized to vehicle; 0–20 s; n = 4
κLight1.3a [6] = assay: in vivo fiber photometry of κLight1.3a in NAcSh, agonist/antagonist drug injection; set-up: species or system mouse; conditions: κOR-Cre mice NAcSh; aticaprant 3 mg per kg + U50,488 10 mg per kg i.p.; 0–50 min; n = 6
Protocol: To detect dynorphin signaling at κOR-expressing neurons, we injected κOR-Cre mice with AAV5-CAG-DIO-κLight1.3a and implanted optical fibers in the NAcSh. A subset of mice was also injected with the red-shifted opsin ChRimson (AAV5-DIO-EF1a-ChRimson-tdTomato) in the BLA (Fig. 5a–c and Extended Data Fig. 5a); ChRimson-lacking mice served as a negative control to determine if optical stimulation produced artifactual dynamics in κLight1.3a fluorescence. We first examined the response of κLight1.3a to the agonist U50,488 in these mice (Fig. 5d).
Mice were pretreated with either vehicle (17:1:1:1 ratio of saline:dimethylsulfoxide:corn oil:ethanol) or aticaprant (Eli Lilly) at 3 mg per kg body weight […] i.p. for 30 min. […]
as §3

δLight [7] = conditions: neuron cultures; 100 μM ME then 1 mM naloxone

T3 sequence (P41143 with tags, fused parts or gaps, stated change not applied): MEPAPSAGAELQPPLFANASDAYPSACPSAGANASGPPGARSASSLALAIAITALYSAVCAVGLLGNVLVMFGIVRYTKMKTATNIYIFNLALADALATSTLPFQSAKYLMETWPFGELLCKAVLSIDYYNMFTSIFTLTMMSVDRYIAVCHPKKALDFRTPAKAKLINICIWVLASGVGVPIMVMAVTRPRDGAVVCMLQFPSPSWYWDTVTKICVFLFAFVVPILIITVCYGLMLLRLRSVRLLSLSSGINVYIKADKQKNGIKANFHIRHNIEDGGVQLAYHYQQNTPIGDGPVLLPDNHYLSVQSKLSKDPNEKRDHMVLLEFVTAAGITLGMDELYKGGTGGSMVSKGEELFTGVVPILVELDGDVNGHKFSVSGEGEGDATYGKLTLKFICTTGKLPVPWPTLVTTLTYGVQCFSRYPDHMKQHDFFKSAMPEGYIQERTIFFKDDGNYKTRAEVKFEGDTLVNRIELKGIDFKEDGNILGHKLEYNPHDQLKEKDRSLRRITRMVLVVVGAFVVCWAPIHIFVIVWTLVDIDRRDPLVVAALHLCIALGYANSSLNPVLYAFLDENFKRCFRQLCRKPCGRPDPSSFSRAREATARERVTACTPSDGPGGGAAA
T2 sequence (P41143 with tags, fused parts or gaps, stated change not applied): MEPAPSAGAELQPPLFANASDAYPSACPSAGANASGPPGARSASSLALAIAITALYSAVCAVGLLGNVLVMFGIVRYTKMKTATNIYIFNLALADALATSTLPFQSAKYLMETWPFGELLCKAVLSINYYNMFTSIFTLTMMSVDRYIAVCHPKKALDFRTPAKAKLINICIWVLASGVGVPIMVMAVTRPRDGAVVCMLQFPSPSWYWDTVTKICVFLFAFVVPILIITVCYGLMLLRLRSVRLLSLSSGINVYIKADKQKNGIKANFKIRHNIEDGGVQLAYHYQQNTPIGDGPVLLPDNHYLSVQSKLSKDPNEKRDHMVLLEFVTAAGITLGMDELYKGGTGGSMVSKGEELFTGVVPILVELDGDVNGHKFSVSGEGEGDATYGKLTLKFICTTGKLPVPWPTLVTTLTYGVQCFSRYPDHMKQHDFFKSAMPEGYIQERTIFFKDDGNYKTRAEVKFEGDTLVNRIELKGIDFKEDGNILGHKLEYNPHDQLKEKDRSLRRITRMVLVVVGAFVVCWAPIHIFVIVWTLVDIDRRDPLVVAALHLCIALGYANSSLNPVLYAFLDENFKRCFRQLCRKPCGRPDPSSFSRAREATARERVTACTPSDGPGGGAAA
µLight, sequence (P35372 with tags, fused parts or gaps V175Q/INS270[withheld]): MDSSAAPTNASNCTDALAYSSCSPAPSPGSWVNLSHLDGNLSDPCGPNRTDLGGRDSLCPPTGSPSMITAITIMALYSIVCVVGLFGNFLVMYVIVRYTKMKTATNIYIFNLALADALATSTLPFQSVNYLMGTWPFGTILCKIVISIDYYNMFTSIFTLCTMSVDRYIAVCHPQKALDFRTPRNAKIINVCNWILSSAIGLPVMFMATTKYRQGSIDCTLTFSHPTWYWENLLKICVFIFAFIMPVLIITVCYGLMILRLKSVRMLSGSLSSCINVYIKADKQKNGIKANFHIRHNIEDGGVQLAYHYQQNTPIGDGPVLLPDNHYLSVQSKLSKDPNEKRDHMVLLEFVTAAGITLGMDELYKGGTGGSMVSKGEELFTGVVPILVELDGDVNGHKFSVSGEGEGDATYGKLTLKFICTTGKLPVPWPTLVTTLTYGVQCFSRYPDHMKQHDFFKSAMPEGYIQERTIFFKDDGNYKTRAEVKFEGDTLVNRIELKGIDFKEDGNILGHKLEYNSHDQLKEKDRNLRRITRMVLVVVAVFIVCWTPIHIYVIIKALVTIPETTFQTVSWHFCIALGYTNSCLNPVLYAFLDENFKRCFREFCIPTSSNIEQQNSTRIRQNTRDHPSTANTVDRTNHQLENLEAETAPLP

Oc1ccc2c3c1O[C@H]1c4[nH]c5c(c4C[C@@]4(O)[C@@H](C2)N(CC2CC2)CC[C@]314)C[C@@]1(O)[C@H]2Cc3ccc(O)c4c3[C@@]1(CCN2CC1CC1)[C@H]5O4 [Nor-BNI, nor-binaltorphimine]
peak ΔF/F of κLight1.3a to 15 electrical stimuli in presence of antagonist (κLight1.3a [1]): 1.57% ± 1.2
pA2 at κLight1.3 (κLight1.3 [2]): 8.28

C=CCN1C[C@H](C)N([C@@H](c2ccccc2)c2ccc(C(=O)N(CC)CC)cc2)C[C@H]1C [SNC162]
peak z-score of δLight0 (δLight0; ARC (panel j)): 0.77 ± 0.5%
peak z-score of δLight0 (δLight0; ARC as printed (panel l)): −0.61 ± 0.4%
Normalized ΔF/F of κLight1.3 (κLight1.3 [3]): 0.009 ± 0.02
κLight ΔF/F max (%) (κLight1.3 [3]): 12.2±2.39%
EC50 (κLight1.3 [3]; read-out: κLight EC50): 8.28 µM
z-score peak of δLight (δLight [4]; ARC, SNC162 2.25 mg per kg): 2.4 ± 1.0
z-score peak of δLight (δLight [4]; ARC, SNC162 5 mg per kg): 7.28 ± 2.4
z-score peak of δLight (δLight [4]; NAc, SNC162 5 mg per kg): 7.45 ± 2.20
μLight ΔF/F max (%) (µLight): 2.9±1.69%
EC50 (µLight; read-out: μLight EC50): 87.3 nM

Cc1cc(C)cc([C@@H]2CCCN2Cc2ccc(Oc3ccc(C(N)=O)cc3F)cc2)c1 [aticaprant]
Normalized peak fluorescence of κLight1.3a, ChRimson stimulation-evoked trials (κLight1.3a [5]): 0.63 ± 0.14
Normalized peak fluorescence of κLight1.3a during injection period (κLight1.3a [6]): 0.29 ± 0.07

C=CCN1CC[C@]23c4c5ccc(O)c4O[C@H]2C(=O)CC[C@@]3(O)[C@H]1C5 [naloxone]
δLight ΔF/F, + antagonist response (δLight [7]): 1.82 ± 2.4%

ICI 174864
peak ΔF/F of κLight1.3a to 15 electrical stimuli in presence of antagonist (κLight1.3a [1]): 6.44% ± 0.3
antagonism of κLight activation by DynA13 (κLight1.3 [2]): did not observe apparent antagonism
